Measurements from patent US5221669A, “Antiviral compositions containing α-cyclodextrin sulfates alone and in combination with other known antiviral agents and glucocorticoids and methods of treating viral infections” (The United States of America as represented by the …, priority 1991, dated 1993).
“And” between values parts separate entries of the source, which are not always exact repeats. Equal values may be shown once. Read-outs that look alike come from different tables or passages of the source.

Key:
[1] = test system: PMNCs; conditions: for % <Decrease (viable cells): decrease vs control; for Viable cells: controls 118 and 106; for % >Increase (viable cells): increase vs control
Procedure: Uninfected PMNCs, drug-treated PMNCs, and drug-treated and virus-infected PMNCs in different experiments were tested for drug toxicity and for the alterations in the numbers of viable cells in response to drug treatment by trypan blue exclusion method.
To understand the mechanism of virus enhancement and to evaluate the toxicity of the sulphated sugars to PMNCs in culture, cell viability counts were performed on trypan blue-stained cells.

[2] = test system: HIV-1; assay: HIV-1 replication in PHA-stimulated PMNC cultures, RT method on culture supernatants; conditions: for Virus-enhancement effect: low drug concentrations; for Increase in virus production: concentrations of 1.0 μg ml^-1 or less
Procedure: Phytohaemagglutinin stimulated human peripheral blood mononuclear cells (PHA-PMNCs) were exposed to A-CDS and PPS and infected with HIV-1 as follows. PMNCs stimulated with 10.0 μg ml^-1 of PHA were further propagated in Medium B (RPMI-1640 medium with 10% fetal calf serum, 10% T-cell growth factor, and 1:500 goat antibody to human Interferon) at 10^8 cells ml^-1 in 20 ml and were exposed to different concentrations of drugs and simultaneously infected with 10000 c.p.m. ml^-1 of HIV-1 in 20 ml/culture flask. Cultures were tested for the quantity of cell-free virus in the culture supernatants using the RT method. RT activity in the disrupted virions was tested by using exogenous template poly (rA).(dT)12-18 as described (Anand et al., (1988), supra. The reaction mixture consisted of 50mM Tris-hydrochloride (pH 7.5), 5mM dithiothreitol 100mM KCI, 10mM MgClhd 2, 10 μM [^3 H]-TTP, Triton X-100 containing poly (rA).(dT)12-18 at 30 μg ml^-1 (mcg ml^-1). The reaction mixture was incubated at 37° C. for 2 hours, and [^3 H]-TTP incorporated into polymers was precipitated with 10% trichloroacetic acid, collected on a glass fibre filter, and counted in an LKB 1219 Rackbeta scintillation counter. Various cultures in the experiment are represented: .quadrature.-.quadrature., A-CDS; .smallcircle.-.smallcircle., PPS; .smallcircle.-.smallcircle., B-CDS. The values are means of two determinations tested in two separate experiments. The range of variation was no greater than 15%.
After two days, PMNCs were infected and studied for the change in virus replication in the presence of drugs and for the direct effect of drugs on cell multiplication.
PMNCs stimulated with PHA were further propagated in Medium B(RPMI-1640 with 10% fetal calf serum. 10% T-cell growth factor and 1:500 diluted goat antibody to human interferon). […] In general, four hours after injection and drug treatment, cultures were centrifuged to remove the extracellular virus and the cells were resuspended in fresh Medium B and replenished with appropriate drug concentrations. The percent change in virus replication was calculated as (x-c)/c×100, where x represented the experimental value and c represented the control value.
Reduction in RT activity was a reflection of the inhibition of virus production and therefore virus replication. The virus was prepared from the drug-treated and untreated culture supernatants.
Cultures were infected with virus and treated with the drugs simultaneously and were tested to evaluate the amount of virus production by the reverse transcriptase (RT) method.

[3] = test system: PMNCs; assay: Cell proliferation (cell count) with hydrocortisone phosphate and α-cyclodextrin sulfate; assay type: cell-based, human
Description: Anti-HIV Effects of Sulphated Sugars in Presence of Glucocorticoids. HIV infections are at some later stages invariably complicated by pathologies which involve neovascularization, particularly those associated with Kaposi's sarcoma. Previously, Folkman et al., Science 243, 1490-1493, 1989, observed that B-CDS stimulates this particular pathology, but that this side-effect can be suppressed by glucocorticoids. […] Thus, pathological neovascularization can be avoided without comprising the anti-HIV effects.

[4] = target: T1, reverse transcriptase enzyme of detergent-disrupted LAV-1BRU isolate (Human immunodeficiency virus type 1 (BRU ISOLATE), UniProt P03367); assay: Direct effect on reverse transcriptase enzyme activity of detergent-disrupted virus; assay type: biochemical; conditions: for Inhibition of RT enzyme activity: concentrations tested up to 25.0 μg ml^-1; for RT activity: control 180; for % >Increase (RT activity): increase vs control; for % <Decrease (RT activity): decrease vs control
T1 construct: poly(rA).oligo(dT) template
Description: Microb. Agents Chemother. 32:684-688 (1988).
The direct effect of A-CDS, B-CDS and PPS on the reverse transcriptase enzyme activity by treating a detergent-disrupted LAV-1BRU isolate with these drugs and subjecting it to the RT method was examined.

[5] = test system: HIV-1 p24 antigen; assay: p24 antigen ELISA in supernatant-free lysed cells; assay type: cell-based; conditions: supernatant-free lysed cells after exposure
Description: Intracellular changes in the amount of HIV-1 following exposure to PPS were studied by measuring p24 antigen in the supernatant-free lysed cells.

[6] = α-cyclodextrin sulfate 2.5 μg/ml alone
[7] = α-cyclodextrin sulfate 5.0 μg/ml alone
[8] = α-cyclodextrin sulfate 10.0 μg/ml alone
[9] = hydrocortisone phosphate 5 μg/ml alone

For Cc1cn([C@H]2C[C@H](N=[N+]=[N-])[C@@H](CO)O2)c(=O)[nH]c1=O [AZT, 3'-azido-2',3'-dideoxythy-midine], the “% <Decrease (viable cells)” value ([1]; 10nM) was 35%, the Viable cells [1] was 72 10^4 ml^-1 and the “Replication (fold decrease)” value ([2]; AZT 10 nM alone) was 1.2 fold decrease. It also gave an RT activity ([2]; AZT 10 nM alone, control 164) of 134 c.p.m. × 10^3 ml^-1.
In the case of .varies.-cyclodextrin sulphate [A-CDS], the Viable cells ([1]; conc. 0.1 μg ml^-1) is reported as 140 10^4 ml^-1, the “% >Increase (viable cells)” value ([1]; conc. 0.1 μg ml^-1) is reported as 25% and the Viable cells ([1]; conc. 0.5 μg ml^-1) is reported as 128 10^4 ml^-1. For the same compound, the “% >Increase (viable cells)” value ([1]; conc. 0.5 μg ml^-1) was 14%, the “Inhibition of HIV-1 replication in PMNC cultures” value (from here on “Inhibition of HIV-1 replication”) [2] was “potent inhibitors” and the “Replication (fold decrease)” value ([2]; A-CDS 0.5 μg ml^-1 alone) was 2.8 fold decrease. For the same compound, the RT activity ([2]; A-CDS 0.5 μg ml^-1 alone, control 164) was 57 c.p.m. × 10^3 ml^-1, the “Replication (fold decrease)” value ([2]; A-CDS 1.5 μg ml^-1 alone) was 4.9 fold decrease and the RT activity ([2]; A-CDS 1.5 μg ml^-1 alone, control 164) was 33 c.p.m. × 10^3 ml^-1. For the same compound, the “Relative anti-HIV potency from the dose-response relationship” value ([2]; PMNC cultures, infected and treated simultaneously) was “more potent in anti-HIV action than PPS, B-CDS and DS”, the “Virus-enhancement effect” value [2] was “lacks the virus-enhancement effect” and the “Inhibition of HIV-1 reverse transcriptase activity (%)” value (from here on “Inhibition … (%)”) ([2]; α-cyclodextrin sulfate 0.5 μg/ml alone) was 77%. For the same compound, the “Inhibition … (%)” value ([2]; α-cyclodextrin sulfate 1.0 μg/ml alone) was 72%, the “Inhibition … (%)” value [2, 6] was 80% and the “Inhibition … (%)” value [2, 7] was 83%. The “Inhibition … (%)” value [2, 8] was 91%, the “Cell Count in million per mL” value [3, 6] was 1.2 million per mL and the “Cell Count in million per mL” value [3, 7] was 1.3 million per mL. For the same compound, the “Cell Count in million per mL” value [3, 8] was 1.5 million per mL and the “Inhibition of RT enzyme activity” value [4] was “No inhibition”.
In the case of β-cyclodextrin sulphate [B-CDS], the Viable cells ([1]; conc. 0.1 μg ml^-1) is reported as 188 10^4 ml^-1, the “% >Increase (viable cells)” value ([1]; conc. 0.1 μg ml^-1) is reported as 67% and the Viable cells ([1]; conc. 0.5 μg ml^-1) is reported as 140 10^4 ml^-1. For the same compound, the “% >Increase (viable cells)” value ([1]; conc. 0.5 μg ml^-1) was 25%, the “Inhibition of HIV-1 replication” value [2] was “potent inhibitors” and the “Replication <% decrease” value ([2]; B-CDS 2.5 μg ml^-1 alone) was 40.1%. For the same compound, the RT activity ([2]; B-CDS 2.5 μg ml^-1 alone, control 187) was 112 c.p.m. × 10^3 ml^-1, the “Increase in virus production” value [2] was “up to a three-fold increase in virus production” and the “Virus-enhancement effect” value [2] was “virus-enhancement effect”. For the same compound, the “Inhibition of RT enzyme activity” value [4] was “No inhibition”.
Pentosan polysulfate [PPS] was tested, and the “HIV-specific p24 in the cells” value [5] was “decrease in HIV-specific p24 in the cells”, the Viable cells ([1]; conc. 0.1 μg ml^-1) was 268 10^4 ml^-1 and the “% >Increase (viable cells)” value ([1]; conc. 0.1 μg ml^-1) was 141%. The Viable cells ([1]; conc. 0.5 μg ml^-1) was 202 10^4 ml^-1, the “% <Decrease (viable cells)” value ([1]; conc. 0.5 μg ml^-1) was 80% and the “Lymphoproliferative effect, increase in cell numbers relative to control cultures” value ([1]; particularly at low drug concentrations) was “more lymphoproliferative activity than B-CDS and A-CDS”. The “Protective effect on infected cells from HIV-associated cytopathic effect” value ([1]; virus-infected PMNCs, relative to virus-infected drug-free cultures) was “more than A-CDS and B-CDS”, the “Inhibition of HIV-1 replication” value [2] was “potent inhibitors” and the “Replication <% decrease” value ([2]; PPS 2.0 μg ml^-1 alone) was 77.0%. The RT activity ([2]; PPS 2.0 μg ml^-1 alone, control 187) was 43 c.p.m. × 10^3 ml^-1, the “Increase in virus production” value [2] was “up to a three-fold increase in virus production” and the “Virus-enhancement effect” value [2] was “virus-enhancement effect”. The “Enhancement of the RT reaction” value ([4]; 0.1 and 0.5 μg ml^-1) was “enhancement of the reaction”, the RT activity ([4]; drug conc. 0.1 μg ml^-1) was 194 c.p.m. × 10^3 ml^-1 and the “% >Increase (RT activity)” value ([4]; drug conc. 0.1 μg ml^-1) was 7.7%. The RT activity ([4]; drug conc. 0.5 μg ml^-1) was 219 c.p.m. × 10^3 ml^-1, the “% >Increase (RT activity)” value ([4]; drug conc. 0.5 μg ml^-1) was 21.6% and the RT activity ([4]; drug conc. 2.0 μg ml^-1) was 163 c.p.m. × 10^3 ml^-1. For the same compound, the “% <Decrease (RT activity)” value ([4]; drug conc. 2.0 μg ml^-1) was 9.4%, the RT activity ([4]; drug conc. 4.0 μg ml^-1) was 22 c.p.m. × 10^3 ml^-1 and the “% <Decrease (RT activity)” value ([4]; drug conc. 4.0 μg ml^-1, 120 min) was 87% and 87.7%. The RT activity ([4]; drug conc. 5.0 μg ml^-1) was 17 c.p.m. × 10^3 ml^-1, the RT activity ([4]; drug conc. 6.0 μg ml^-1) was 17 c.p.m. × 10^3 ml^-1 and the “% <Decrease (RT activity)” value ([4]; drug conc. 6.0 μg ml^-1, 120 min) was 90.5%. The RT activity ([4]; drug conc. 8.0 μg ml^-1) was 9 c.p.m. × 10^3 ml^-1, the “% <Decrease (RT activity)” value ([4]; drug conc. 8.0 μg ml^-1, 120 min) was 95.0% and the RT activity ([4]; drug conc. 10.0 μg ml^-1) was 7 c.p.m. × 10^3 ml^-1. The “% <Decrease (RT activity)” value ([4]; drug conc. 10.0 μg ml^-1, 120 min) was 97.7%, the RT activity ([4]; drug conc. 15.0 μg ml^-1) was 4 c.p.m. × 10^3 ml^-1 and the “% <Decrease (RT activity)” value ([4]; drug conc. 15.0 μg ml^-1, 120 min) was 97.7%. The RT activity ([4]; drug conc. 20.0 μg ml^-1) was 2 c.p.m. × 10^3 ml^-1, the “% <Decrease (RT activity)” value ([4]; drug conc. 20.0 μg ml^-1, 120 min) was 99.8% and the RT activity ([4]; drug conc. 25.0 μg ml^-1) was 1 c.p.m. × 10^3 ml^-1. The “% <Decrease (RT activity)” value ([4]; drug conc. 25.0 μg ml^-1, 120 min) was 99.4%.
In the case of C[C@]12CCC(=O)C=C1CC[C@@H]1[C@@H]2[C@@H](O)C[C@@]2(C)[C@H]1CC[C@]2(O)C(=O)COP(=O)(O)O [hydrocortisone phosphate], the “Inhibition … (%)” value [2, 9] is reported as 39% and 20% and the “Cell Count in million per mL” value [3, 9] is reported as 1.2 million per mL and 1.0 million per mL.
With dextran sulphate [DS] the Viable cells ([1]; conc. 0.1 μg ml^-1) was 170 10^4 ml^-1, the “% <Decrease (viable cells)” value ([1]; conc. 0.1 μg ml^-1) was 51% and the Viable cells ([1]; conc. 0.5 μg ml^-1) was 90 10^4 ml^-1. For the same compound, the “% >Increase (viable cells)” value ([1]; conc. 0.5 μg ml^-1) was 19% and the “Virus-enhancement effect” value [2] was “virus-enhancement effect”.
